From patent US12084451B2, “Compositions and methods for reducing tactile dysfunction, anxiety, and social impairment” (President and Fellows of Harvard College, priority 2018, dated 2024)
“And” between values parts separate entries of the source, which are not always exact repeats. Equal values may be shown once.

Key:
hGABAA α2β3γ2 = hGABAA α2β3γ2 (Homo sapiens, UniProt P18507+P28472+P47869); experiment: hGABAA IonFlux HT PAM Assay, α2β3γ2; type: cell-based
Excerpt: (§1) Ligand-gated ion channels targeted were hGABAA α1β3γ2 and hGABAA α2β3γ2.
(§2) Electrophysiological assays conducted to profile nine (9) compounds for activities on the on channel targets listed above for Positive Allosteric Modulator (PAM) activities using the IonFlux HT electrophysiological platform.
The parameters measured are described in the Data Analysis section. […] Open circles represent data that has been excluded from the curve fitting. Where no curve fit was possible, n/c (not calculable) is listed.
(§3) All wells included a final DMSO concentration of 0.33% including all control wells.
(§4) All recordings were obtained from a holding potential of −60 mV. The compound addition sequence that was used for all additions was the same for all assays. […] The process was repeated with the next ascending concentration of test compound (FIG. 1).
(§5) All data were first exported to an Excel compatible data file and then analyzed using Graph Pad Prism software.

SNL rats = experiment: Rat spinal nerve ligation (SNL) model of neuropathic pain, Von frey test; type: in vivo, SD Rat; conditions: 5 mpk IP; for Von frey test 50% g Threshold, group mean: N 8
Method: Chung surgery were conducted on anesthetized rats. Rats were habituated in the testing environment for 15 minutes before allodynia measurement (2-3 times). Pre-dose baseline were taken on day 9 post surgery. Rats that don't show allodynic response at this point were excluded. SNL rats with a paw withdrawal threshold >4 g. The animals were grouped according to 50% paw withdrawal threshold (g) and weight. The animals were dosed test articles and vehicle according to the dose protocol. On the testing day (Day 9), rats were dosed with testing articles with 16 min interval between groups. Rats were measured for allodynic response at 0.75, 1.5, 3 h time point post dosing. All values will be expressed as mean±S.E.M. The significance of the differences among groups will be evaluated by two-way ANOVA followed by Dunnett's test using graphpad Prism 6 software. A p value of less than 0.05 is considered statistically significant.

GABAA targets = conditions: previous study (US034-0003415); cited from earlier work
hGABAA α1β3γ2 [1] = target: T1, hGABAA α1β3γ2 (Homo sapiens, UniProt P14867+P18507+P28472); experiment: hGABAA α1β3γ2 IonFlux HT Agonist Assay; type: cell-based; conditions: for Normalized Percentage Activation Mean: normalized to EC100 GABA (30 μM)
Method: Ligand-gated ion channel targets were hGABAA α2β3γ2 and hGABAA α1β3γ2. Electrophysiological assays conducted to profile two compounds for agonist activities on hGABAA α2β3γ2 and seven compounds for agonist activities on hGABAA α1β3γ2 using the IonFlux HT electrophysiological platform.
The parameters measured are described in the Data Analysis section. […] Note: The test compounds was applied over two (2) ‘experimental patterns’ in increasing concentrations.
The supplied compound was prepared in DMSO to concentrations that were 300× the final assay concentrations. Aliquots were taken out and diluted 300× into external buffer to give the final assay concentration. At wells included a final DMSO concentration of 0.33% including all control wets.
All recordings were obtained from a holding potential of −60 mV. The compound addition sequence that was used for all additions was the same for all assays. […] Each test concentration of compound was applied for 2 seconds followed by 60 seconds wash. The process was repeated with the next ascending concentration of test compound. The test compounds were applied over two (2) ‘experimental patterns’ in increasing concentrations (FIG. 11).
AM data were first exported to an Excel compatible data file and then analyzed using Graph Pad Prism software.

[2] = tested on: Mecp2, Shank3, and Fmr1 mutant mice; experiment: animal models of ASD; type: in vivo; conditions: three animal models of ASD (Mecp2, Shank3, and Fmr1 mutant mice)
Excerpt: These findings raise the exciting possibility that GABAA receptor agonists, which attenuate the activity of peripheral mechanosensory neurons, may be useful for treating tactile hypersensitivity and thus anxiety and social impairments in ASD patients. Treating young children with GABAA receptor agonists has traditionally been avoided because of undesirable side effects of these drugs in children. Indeed, there is great reluctance on the part of physicians to use FDA-approved GABAA receptor agonists and positive allosteric modulators because of undesirable side effects, including sedation, and serious complications associated with interference with brain development. […] Importantly, peripherally-restricted GABAA receptor agonists should not promote undesirable side effects observed with all currently used, FDA-approved GABAA receptor agonists that act in the brain.

hGABAA α1β3γ2 [3] = target: T1, hGABAA α1β3γ2; experiment: hGABAA IonFlux HT PAM Assay, α1β3γ2; type: cell-based
Excerpt: as §1, §2
The parameters measured are described in the Data Analysis section.
as §3, §4, §5

[4] = positive modulation of EC20 GABA current

T1 sequence (P14867 28-456): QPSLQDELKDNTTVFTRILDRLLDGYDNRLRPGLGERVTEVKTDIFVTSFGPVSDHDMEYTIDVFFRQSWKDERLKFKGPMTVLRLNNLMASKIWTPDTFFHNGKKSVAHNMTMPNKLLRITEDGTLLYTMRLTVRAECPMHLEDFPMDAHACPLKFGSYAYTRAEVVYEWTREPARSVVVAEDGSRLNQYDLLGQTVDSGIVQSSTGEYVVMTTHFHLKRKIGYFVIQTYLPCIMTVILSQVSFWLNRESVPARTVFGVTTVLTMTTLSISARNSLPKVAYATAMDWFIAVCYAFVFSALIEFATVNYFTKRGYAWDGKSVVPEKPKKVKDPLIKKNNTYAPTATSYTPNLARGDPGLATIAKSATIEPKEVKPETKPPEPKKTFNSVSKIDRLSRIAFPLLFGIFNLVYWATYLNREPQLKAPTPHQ
T1 sequence (P28472 26-473): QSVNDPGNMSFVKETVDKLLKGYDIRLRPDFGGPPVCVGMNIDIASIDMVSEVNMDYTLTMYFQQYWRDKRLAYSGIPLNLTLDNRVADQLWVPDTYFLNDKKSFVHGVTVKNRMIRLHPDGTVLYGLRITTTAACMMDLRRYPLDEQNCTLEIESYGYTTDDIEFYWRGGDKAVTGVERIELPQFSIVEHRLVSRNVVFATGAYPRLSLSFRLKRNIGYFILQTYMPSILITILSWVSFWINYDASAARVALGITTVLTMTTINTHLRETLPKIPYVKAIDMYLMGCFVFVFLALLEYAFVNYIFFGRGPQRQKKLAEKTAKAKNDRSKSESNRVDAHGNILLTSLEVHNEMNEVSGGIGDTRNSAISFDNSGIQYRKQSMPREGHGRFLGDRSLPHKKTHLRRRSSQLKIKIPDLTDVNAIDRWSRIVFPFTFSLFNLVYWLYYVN
T1 sequence (P18507 40-475): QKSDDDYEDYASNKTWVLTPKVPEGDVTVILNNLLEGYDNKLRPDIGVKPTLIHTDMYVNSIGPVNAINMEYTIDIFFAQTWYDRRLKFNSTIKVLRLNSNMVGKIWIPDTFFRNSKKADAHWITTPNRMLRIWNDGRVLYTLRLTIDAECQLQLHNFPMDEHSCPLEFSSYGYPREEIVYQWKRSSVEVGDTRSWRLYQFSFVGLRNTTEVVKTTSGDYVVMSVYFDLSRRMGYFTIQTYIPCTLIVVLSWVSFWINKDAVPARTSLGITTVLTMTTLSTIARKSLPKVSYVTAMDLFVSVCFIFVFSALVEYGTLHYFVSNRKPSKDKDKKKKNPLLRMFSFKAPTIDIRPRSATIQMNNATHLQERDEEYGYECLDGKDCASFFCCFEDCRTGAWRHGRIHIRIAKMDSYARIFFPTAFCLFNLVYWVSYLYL
hGABAA α2β3γ2, sequence (P47869 29-451): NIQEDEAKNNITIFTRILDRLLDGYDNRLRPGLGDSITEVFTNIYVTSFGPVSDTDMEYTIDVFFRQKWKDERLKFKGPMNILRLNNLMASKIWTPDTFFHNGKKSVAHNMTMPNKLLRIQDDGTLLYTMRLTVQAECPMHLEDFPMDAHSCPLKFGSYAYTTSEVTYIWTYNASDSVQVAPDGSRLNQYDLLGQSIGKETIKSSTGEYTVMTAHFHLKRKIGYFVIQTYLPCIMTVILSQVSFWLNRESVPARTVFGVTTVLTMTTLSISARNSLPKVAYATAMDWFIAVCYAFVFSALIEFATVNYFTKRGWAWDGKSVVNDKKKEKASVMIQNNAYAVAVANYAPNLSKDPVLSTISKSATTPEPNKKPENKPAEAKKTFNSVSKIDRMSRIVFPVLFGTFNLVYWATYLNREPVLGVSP
hGABAA α2β3γ2, sequence (P28472 26-473): as the sequence (P28472 26-473) above
hGABAA α2β3γ2, sequence (P18507 40-475): as the sequence (P18507 40-475) above

SMILES: O=C(O)C1=CCNCC1 [Isoguvacine]
- (%) Control mean (hGABAA α2β3γ2; 0.001 μM + EC20 GABA): 95.4 % Control
- (%) Control n1 (hGABAA α2β3γ2; 0.001 μM + EC20 GABA): 94.5 % Control
- (%) Control n2 (hGABAA α2β3γ2; 0.001 μM + EC20 GABA): 96.3 % Control
- (%) Control mean (hGABAA α2β3γ2; 0.01 μM + EC20 GABA): 93.2 % Control
- (%) Control n1 (hGABAA α2β3γ2; 0.01 μM + EC20 GABA): 90.4 % Control
- (%) Control n2 (hGABAA α2β3γ2; 0.01 μM + EC20 GABA): 96.0 % Control
- (%) Control mean (hGABAA α2β3γ2; 0.1 μM + EC20 GABA): 88.9 % Control
- (%) Control n1 (hGABAA α2β3γ2; 0.1 μM + EC20 GABA): 85.9 % Control
- (%) Control n2 (hGABAA α2β3γ2; 0.1 μM + EC20 GABA): 91.8 % Control
- (%) Control mean (hGABAA α2β3γ2; 1 μM + EC20 GABA): 92.3 % Control
- (%) Control n1 (hGABAA α2β3γ2; 1 μM + EC20 GABA): 95.4 % Control
- (%) Control n2 (hGABAA α2β3γ2; 1 μM + EC20 GABA): 89.3 % Control
- (%) Control mean (hGABAA α2β3γ2; 10 μM + EC20 GABA): 45.7 % Control
- (%) Control n1 (hGABAA α2β3γ2; 10 μM + EC20 GABA): 55.0 % Control
- (%) Control n2 (hGABAA α2β3γ2; 10 μM + EC20 GABA): 36.4 % Control
- (%) Control mean (hGABAA α2β3γ2; 100 μM + EC20 GABA): 6.9 % Control
- (%) Control n1 (hGABAA α2β3γ2; 100 μM + EC20 GABA): 8.4 % Control
- (%) Control n2 (hGABAA α2β3γ2; 100 μM + EC20 GABA): 5.3 % Control
- Mean Maximal Effect (% of Control) (hGABAA α2β3γ2; normalized to baseline peak current induced by EC20 GABA (0.8 μM) for 2 seconds): 95 % of Control
- Estimated EC50 (hGABAA α2β3γ2; [4]): n/c*
- Von frey test 50% g Threshold, group mean (SNL rats; 0 Hour (pre-dose baseline), 5 mg/kg): 2.32 g and 2.3 ± 0.33 g
- 50% g Threshold, individual animal (SNL rats; 0 Hour (pre-dose baseline, day 9 post surgery), 5 mg/kg): 0.99 g and 1.10 g and 1.85 g and 2.23 g and 2.81 g and 3.00 g and 3.31 g (2×)
- 50% g Threshold, individual animal (SNL rats; 0.75 Hour post dosing, 5 mg/kg): 1.31 g (2×) and 2.37 g (2×) and 2.81 g and 1.56 g (2×) and 0.99 g
- Von frey test 50% g Threshold, group mean (SNL rats; 0.75 Hour, 5 mg/kg): 1.78 g and 1.8 ± 0.23 g
- 50% g Threshold, individual animal (SNL rats; 1.5 Hour post dosing, 5 mg/kg): 1.85 g (3×) and 2.37 g and 0.82 g and 2.81 g and 1.56 g and 2.64 g
- Von frey test 50% g Threshold, group mean (SNL rats; 1.5 Hour, 5 mg/kg): 1.97 g and 2.0 ± 0.23 g
- 50% g Threshold, individual animal (SNL rats; 3 Hour post dosing, 5 mg/kg): 2.81 g and 6.74 g and 7.91 g and 3.33 g and 5.15 g and 4.34 g and 5.77 g and 3.31 g
- Von frey test 50% g Threshold, group mean (SNL rats; 3 Hour): 4.9 ± 0.64 g
- analgesia effect (SNL rats; 3 hour time point): significant analgesia effect
- agonist activity against GABAA targets (GABAA targets): exhibited agonist activity
- Normalized Percentage Activation Mean (hGABAA α1β3γ2 [1]; 0.3 μM): 1.61%
- Normalized Percentage Activation Mean (hGABAA α1β3γ2 [1]; 1 μM): 2.18%
- Normalized Percentage Activation Mean (hGABAA α1β3γ2 [1]; 3 μM): 6.83%
- Normalized Percentage Activation Mean (hGABAA α1β3γ2 [1]; 10 μM): 30.46%
- Normalized Percentage Activation Mean (hGABAA α1β3γ2 [1]; 30 μM): 65.63%
- Normalized Percentage Activation Mean (hGABAA α1β3γ2 [1]; 100 μM): 84.77%
- Normalized Percentage Activation Mean (hGABAA α1β3γ2 [1]; 300 μM): 92.72%
- Normalized Percentage Activation Mean (hGABAA α1β3γ2 [1]; 10000 μM): 93.46%
- EC50 (hGABAA α1β3γ2 [1]; agonist activation of channel currents, read-out: Estimated EC50): 19.7 µM
- effect on tactile hypersensitivity, anxiety-like behaviors and social impairments [2]: improves tactile hypersensitivity, anxiety-like behaviors and social impairments
- (%) Control mean (hGABAA α1β3γ2 [3]; 0.001 μM + EC20 GABA): 103.6 % Control
- (%) Control n1 (hGABAA α1β3γ2 [3]; 0.001 μM + EC20 GABA): 99.0 % Control
- (%) Control n2 (hGABAA α1β3γ2 [3]; 0.001 μM + EC20 GABA): 108.2 % Control
- (%) Control mean (hGABAA α1β3γ2 [3]; 0.01 μM + EC20 GABA): 109.8 % Control
- (%) Control n1 (hGABAA α1β3γ2 [3]; 0.01 μM + EC20 GABA): 108.8 % Control
- (%) Control n2 (hGABAA α1β3γ2 [3]; 0.01 μM + EC20 GABA): 110.8 % Control
- (%) Control mean (hGABAA α1β3γ2 [3]; 0.1 μM + EC20 GABA): 113.7 % Control
- (%) Control n1 (hGABAA α1β3γ2 [3]; 0.1 μM + EC20 GABA): 110.0 % Control
- (%) Control n2 (hGABAA α1β3γ2 [3]; 0.1 μM + EC20 GABA): 117.4 % Control
- (%) Control mean (hGABAA α1β3γ2 [3]; 1 μM + EC20 GABA): 119.8 % Control
- (%) Control n1 (hGABAA α1β3γ2 [3]; 1 μM + EC20 GABA): 124.5 % Control
- (%) Control n2 (hGABAA α1β3γ2 [3]; 1 μM + EC20 GABA): 115.2 % Control
- (%) Control mean (hGABAA α1β3γ2 [3]; 10 μM + EC20 GABA): 73.0 % Control
- (%) Control n1 (hGABAA α1β3γ2 [3]; 10 μM + EC20 GABA): 76.1 % Control
- (%) Control n2 (hGABAA α1β3γ2 [3]; 10 μM + EC20 GABA): 69.9 % Control
- (%) Control mean (hGABAA α1β3γ2 [3]; 100 μM + EC20 GABA): 8.0 % Control
- (%) Control n1 (hGABAA α1β3γ2 [3]; 100 μM + EC20 GABA): 7.6 % Control
- (%) Control n2 (hGABAA α1β3γ2 [3]; 100 μM + EC20 GABA): 8.3 % Control
- Mean Maximal Effect (% of Control) (hGABAA α1β3γ2 [3]; normalized to baseline peak current induced by EC20 GABA (1 μM) for 2 seconds): 120 % of Control
- Estimated EC50 (hGABAA α1β3γ2 [3]; [4]): n/c*
